According to US9023789B2, “Amylin analogs and pharmaceutical compositions thereof” (Novo Nordisk A/S, priority 2012, dated 2015):
pEC50: −log10 of the molar value. Numbered stars: 1 amine (or outer) side, 2 acyl side, 3 side chain; on linkers, the order of the positions; unused ones are H or OH. Bridge positions count the residues as written; N and C are the ends. Side chains are listed from the residue outwards. Peptide text beside a SMILES is read from it. * marks the point of attachment. C20 diacid = O=C(O)CCCCCCCCCCCCCCCCCCC(=O)*; γGlu = O=C(O)[C@H](CCC(=O)[*:2])N[*:1]

Columns and labels:
[1] = system: Male Wistar rats; test: ASSAY (XII) effect from single subcutaneous administration on plasma calcium in rats; type: in vivo, rat; details: for Plasma calcium red (%) 0-12 h (maximal): single s.c., compared to vehicle; for suppression of plasma calcium level relative to vehicle: monitored over 24 hours
Experimental: Assay (XII)—Effect from Single Subcutaneous Administration of Analogue on Plasma Calcium in Rats
Male Wistar rats (Taconic Europe, ˜250 g at test date) were acclimatized to handling prior to the study. Rats were divided in groups of five and subcutaneously dosed with test compound at time=0. At time T=−15 min; 1 h, 2 h, 4 h, 7 h, 12 h, and 24 h a blood sample was obtained and heparin stabilized plasma was analysed for total calcium (Cobas, Hitachi). Data are illustrated in graphs as mean±SEM.

[2] = system: Male Sprague-Dawley rats; test: ASSAY (XI) single subcutaneous administration, food intake monitored for 48 hours in rats; type: in vivo, rat; details: for Food intake red (%) 0-24 h / Food intake red (%) 24-48 h: single s.c., compared to vehicle
Excerpt: Assay (XI)—Effect from Single Subcutaneous Administration of Analogue on Plasma Calcium in Rats
Male Sprague-Dawley rats (Taconic Europe, ˜250 g at test date) were acclimatized to reversed day light cycle (lights on from 10 PM to 10 AM) and single housing in online food intake monitoring system (Ellegaard MBRose, Denmark) prior to study start. […] Data are illustrated in graphs as mean±SEM.

[3] = ASSAY (X) pK, determination of T½ in rat; type: in vivo; details: male, Sprague Dawley, plasma, iv, 20 nmol/kg
[4] = biological target: T1, human calcitonin (a) receptor in BHK570 cells (Homo sapiens, UniProt P30988); test: ASSAY (II)a functional assay, human calcitonin receptor (CRE luciferase); type: cell-based; details: read-out: hCTR funct. EC50
T1 construct: expressed in transfected cells
T1 sequence (P30988 25-474): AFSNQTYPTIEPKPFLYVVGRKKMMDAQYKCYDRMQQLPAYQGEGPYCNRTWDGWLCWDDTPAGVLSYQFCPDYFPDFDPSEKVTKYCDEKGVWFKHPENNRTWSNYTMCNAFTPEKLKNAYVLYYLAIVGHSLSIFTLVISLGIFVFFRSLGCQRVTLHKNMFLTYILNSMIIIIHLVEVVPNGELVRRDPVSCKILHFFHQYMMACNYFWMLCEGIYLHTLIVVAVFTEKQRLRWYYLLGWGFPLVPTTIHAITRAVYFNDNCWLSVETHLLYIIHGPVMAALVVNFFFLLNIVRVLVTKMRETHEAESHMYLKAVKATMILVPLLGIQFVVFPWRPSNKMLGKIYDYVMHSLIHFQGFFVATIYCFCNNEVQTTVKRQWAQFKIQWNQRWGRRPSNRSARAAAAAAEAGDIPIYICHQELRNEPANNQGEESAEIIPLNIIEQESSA
Summary of the method: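 Ligand exposure 3 h at 37 °C, 5% CO2 in DMEM with 10% FBS, 10 mM Hepes pH 7.4. cAMP-driven luciferase read by luminescence after 30 min LucLite at room temperature.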

Plasma calcium red (%) 0-12 h (maximal) ([1]; 100 nmol/kg) [%] | half-life [3] [h] | Plasma calcium red (%) 0-12 h (maximal) ([1]; 30 nmol/kg) [%] | pEC50 [4] | Structure (SMILES) | suppression of plasma calcium level relative to vehicle ([1]; single subcutaneous 100 nmol/kg) | Food intake red (%) 0-24 h ([2]; 3 nmol/kg) [%] | Food intake red (%) 24-48 h ([2]; 3 nmol/kg) [%] | Food intake red (%) 0-24 h ([2]; 30 nmol/kg) [%] | Food intake red (%) 24-48 h ([2]; 30 nmol/kg) [%] | suppression of plasma calcium level relative to vehicle ([1]; single subcutaneous 30 nmol/kg) | suppression of plasma calcium level relative to vehicle ([1]; single subcutaneous 1000 nmol/kg) | food intake monitored over 48 hours ([2]; single subcutaneous administration, 30 nmol/kg, versus vehicle)
9 | 28 |  |  | CC[C@H](C)[C@H](NC(=O)[C@H](C)NC(=O)CNC(=O)[C@H](Cc1ccccc1)NC(=O)[C@H](CC(N)=O)NC(=O)[C@@H]1CCCN1C(=O)[C@H](CO)NC(=O)[C@H](CO)NC(=O)[C@H](Cc1c[nH]cn1)NC(=O)[C@H](CCCNC(=N)N)NC(=O)[C@H](CC(C)C)NC(=O)[C@H](Cc1ccccc1)NC(=O)[C@H](CC(=O)O)NC(=O)[C@H](C)NC(=O)[C@H](CC(C)C)NC(=O)[C@H](CCCNC(=N)N)NC(=O)[C@H](CCC(N)=O)NC(=O)[C@@H](NC(=O)[C@H](C)NC(=O)[C@@H]1CSSC[C@H](NC(=O)[C@@H](N)CCCCNC(=O)CC[C@H](NC(=O)CC[C@H](NC(=O)CCCCCCCCCCCCCCCCCCC(=O)O)C(=O)O)C(=O)O)C(=O)N[C@@H](CC(N)=O)C(=O)N[C@@H]([C@@H](C)O)C(=O)N[C@@H](C)C(=O)N[C@@H]([C@@H](C)O)C(=O)N1)[C@@H](C)O)C(=O)N1CCC[C@H]1C(=O)N[C@@H](CO)C(=O)N[C@@H](CO)C(=O)N[C@H](C(=O)N[C@@H](CC(N)=O)C(=O)N[C@H](C(=O)NCC(=O)N[C@@H](CO)C(=O)N[C@@H](CC(=O)O)C(=O)N[C@H](C(=O)N[C@@H](Cc1ccc(O)cc1)C(N)=O)[C@@H](C)O)C(C)C)[C@@H](C)O [Example 2] (H-K([γGlu-γGlu-C20 diacid])CNTATCATQRLADFLRHSSPNFGAIPSSTNVGSDTY-NH2; disulfide 2-7; N-terminus assumed) | does not trigger a notable suppression of the calcium level | 39 | 10 | 72 | 62 |  |  | 
 | 7 |  |  | CC[C@H](C)[C@H](NC(=O)[C@H](C)NC(=O)CNC(=O)[C@H](Cc1ccccc1)NC(=O)[C@H](CC(N)=O)NC(=O)[C@@H]1CCCN1C(=O)[C@H](CO)NC(=O)[C@H](CO)NC(=O)[C@H](Cc1c[nH]cn1)NC(=O)[C@H](CCCNC(=N)N)NC(=O)[C@H](CC(C)C)NC(=O)[C@H](Cc1ccccc1)NC(=O)[C@H](Cc1c[nH]cn1)NC(=O)[C@H](C)NC(=O)[C@H](CC(C)C)NC(=O)[C@H](CCCNC(=N)N)NC(=O)[C@H](CCC(N)=O)NC(=O)[C@@H](NC(=O)[C@H](C)NC(=O)[C@@H]1CSSC[C@H](NC(=O)[C@@H](N)CCCCNC(=O)CC[C@H](NC(=O)CCCCCCCCCCCCCCCCCCC(=O)O)C(=O)O)C(=O)N[C@@H](CC(N)=O)C(=O)N[C@@H]([C@@H](C)O)C(=O)N[C@@H](C)C(=O)N[C@@H]([C@@H](C)O)C(=O)N1)[C@@H](C)O)C(=O)N1CCC[C@H]1C(=O)N[C@@H](CO)C(=O)N[C@@H](CO)C(=O)N[C@H](C(=O)N[C@@H](CC(N)=O)C(=O)N[C@H](C(=O)NCC(=O)N1CCC[C@H]1C(=O)N[C@@H](CC(N)=O)C(=O)N[C@H](C(=O)N[C@@H](Cc1ccc(O)cc1)C(N)=O)[C@@H](C)O)C(C)C)[C@@H](C)O [Example 67] (H-K([γGlu-C20 diacid])CNTATCATQRLAHFLRHSSPNFGAIPSSTNVGPNTY-NH2; disulfide 2-7 (inferred); N-terminus assumed) |  |  |  |  |  |  |  | 
 | 23 | 7 | 7.95 | CC[C@H](C)[C@H](NC(=O)[C@H](C)NC(=O)CNC(=O)[C@H](Cc1ccccc1)NC(=O)[C@H](CC(N)=O)NC(=O)[C@@H]1CCCN1C(=O)[C@H](CO)NC(=O)[C@H](CO)NC(=O)[C@H](Cc1c[nH]cn1)NC(=O)[C@H](CCCNC(=N)N)NC(=O)[C@H](CC(C)C)NC(=O)[C@H](Cc1ccccc1)NC(=O)[C@H](CCC(=O)O)NC(=O)[C@H](C)NC(=O)[C@H](CC(C)C)NC(=O)[C@H](CCCNC(=N)N)NC(=O)[C@H](CCC(N)=O)NC(=O)[C@@H](NC(=O)[C@H](C)NC(=O)[C@@H]1CSSC[C@H](NC(=O)[C@@H](N)CCCCNC(=O)CC[C@H](NC(=O)CC[C@H](NC(=O)CCCCCCCCCCCCCCCCCCC(=O)O)C(=O)O)C(=O)O)C(=O)N[C@@H](CC(N)=O)C(=O)N[C@@H]([C@@H](C)O)C(=O)N[C@@H](C)C(=O)N[C@@H]([C@@H](C)O)C(=O)N1)[C@@H](C)O)C(=O)N1CCC[C@H]1C(=O)N[C@@H](CO)C(=O)N[C@@H](CO)C(=O)N[C@H](C(=O)N[C@@H](CC(N)=O)C(=O)N[C@H](C(=O)NCC(=O)N[C@@H](CO)C(=O)N[C@@H](CCCNC(=N)N)C(=O)N[C@H](C(=O)N[C@@H](Cc1ccc(O)cc1)C(N)=O)[C@@H](C)O)C(C)C)[C@@H](C)O [Example 89] (H-K([γGlu-γGlu-C20 diacid])CNTATCATQRLAEFLRHSSPNFGAIPSSTNVGSRTY-NH2; disulfide 2-7 (inferred); N-terminus assumed) |  |  |  | 46 | 37 | None of the example compounds at 30 nmol/kg trigger a notable suppression of the calcium level | induces a more pronounced suppression of the calcium level | reduce food intake
 | 3 |  | 8.03 | CC[C@H](C)[C@H](NC(=O)[C@H](C)NC(=O)CNC(=O)[C@H](Cc1ccccc1)NC(=O)[C@H](CC(N)=O)NC(=O)[C@@H]1CCCN1C(=O)[C@H](CO)NC(=O)[C@H](CO)NC(=O)[C@H](Cc1c[nH]cn1)NC(=O)[C@H](CCCNC(=N)N)NC(=O)[C@H](CC(C)C)NC(=O)[C@H](Cc1ccccc1)NC(=O)[C@H](CCCNC(=N)N)NC(=O)[C@H](C)NC(=O)[C@H](CC(C)C)NC(=O)[C@H](CCCNC(=N)N)NC(=O)[C@H](CCC(N)=O)NC(=O)[C@@H](NC(=O)[C@H](C)NC(=O)[C@@H]1CSSC[C@H](NC(=O)[C@@H](N)CCCCNC(=O)CC[C@H](NC(=O)CCCCCCCCCCCCCCCCCCC(=O)O)C(=O)O)C(=O)N[C@@H](CC(N)=O)C(=O)N[C@@H]([C@@H](C)O)C(=O)N[C@@H](C)C(=O)N[C@@H]([C@@H](C)O)C(=O)N1)[C@@H](C)O)C(=O)N1CCC[C@H]1C(=O)N[C@@H](CO)C(=O)N[C@@H](CO)C(=O)N[C@H](C(=O)N[C@@H](CC(N)=O)C(=O)N[C@H](C(=O)NCC(=O)N1CCC[C@H]1C(=O)N[C@@H](CC(N)=O)C(=O)N[C@H](C(=O)N[C@@H](Cc1ccc(O)cc1)C(N)=O)[C@@H](C)O)C(C)C)[C@@H](C)O [Example 65] (H-K([γGlu-C20 diacid])CNTATCATQRLARFLRHSSPNFGAIPSSTNVGPNTY-NH2; disulfide 2-7 (inferred); N-terminus assumed) |  |  |  |  |  |  |  | 
 |  | 26 |  | CC[C@H](C)[C@H](NC(=O)[C@H](C)NC(=O)CNC(=O)[C@H](Cc1ccccc1)NC(=O)[C@H](CC(N)=O)NC(=O)[C@@H]1CCCN1C(=O)[C@H](CO)NC(=O)[C@H](CO)NC(=O)[C@H](Cc1c[nH]cn1)NC(=O)[C@H](CCCNC(=N)N)NC(=O)[C@H](CC(C)C)NC(=O)[C@H](Cc1ccccc1)NC(=O)[C@H](CCC(=O)O)NC(=O)[C@H](C)NC(=O)[C@H](CC(C)C)NC(=O)[C@H](CCCNC(=N)N)NC(=O)[C@H](CCC(N)=O)NC(=O)[C@@H](NC(=O)[C@H](C)NC(=O)[C@@H]1CSSC[C@H](NC(=O)[C@@H](N)CCCCNC(=O)CC[C@H](NC(=O)CCCCCCCCCCCCCCCCCCC(=O)O)C(=O)O)C(=O)N[C@@H](CC(N)=O)C(=O)N[C@@H]([C@@H](C)O)C(=O)N[C@@H](C)C(=O)N[C@@H]([C@@H](C)O)C(=O)N1)[C@@H](C)O)C(=O)N1CCC[C@H]1C(=O)N[C@@H](CO)C(=O)N[C@@H](CO)C(=O)N[C@H](C(=O)N[C@@H](CC(N)=O)C(=O)N[C@H](C(=O)NCC(=O)N1CCC[C@H]1C(=O)N[C@@H](Cc1c[nH]cn1)C(=O)N[C@H](C(=O)N[C@@H](Cc1ccc(O)cc1)C(N)=O)[C@@H](C)O)C(C)C)[C@@H](C)O [Example 118] (H-K([γGlu-C20 diacid])CNTATCATQRLAEFLRHSSPNFGAIPSSTNVGPHTY-NH2; disulfide 2-7) |  | 43 | 1 | 77 | 30 |  |  | 
